Experimental data as given in patent US20260191825A1, “CONTRACEPTIVE COMPOUNDS AND DOSING FOR THE SAME” (YourChoice Therapeutics, Inc., priority 2024, published 2026).
Where “and” joins values, the source holds several entries; their conditions need not be identical. Equal entries are not always repeated. Entries after “also recorded” stand apart in the source; their conditions may differ. Where two headings read alike, the source gives them in different places.

What was measured:
rat micronucleus = experiment: In vivo rat micronucleus study; settings: highest doses tested
[1] = system: bacterial reverse mutation (Ames); experiment: In vitro bacterial reverse mutation (Ames) test; format: cell-based; settings: in vitro bacterial assay, highest doses tested
[2] = NHP exploratory 14-day non-GLP repeat-dose study; format: in vivo, cynomolgus monkey; settings: male, cynomolgus monkey, in vivo; for NOAEL at 14 days: NHP
Description: (§1) An exploratory 14-day non-GLP study was conducted in male NHPs (cynomolgus monkeys) for assessment of efficacy and toxicity parameters prior to the conduct of the 28-day GLP toxicity studies in rats and dogs.

[3] = system: male NHPs (cynomolgus monkeys); experiment: NHP exploratory 14-day non-GLP repeat-dose study; format: in vivo, cynomolgus monkey
Description: as §1

rats = experiment: Mating trials with rats; format: in vivo, rat; settings: control 88%
male mice = experiment: Mouse single dose non-GLP study; format: in vivo
male dogs = experiment: Dog single dose non-GLP study; format: in vivo
[4] = In vitro stability in microsomes (mouse); format: in vitro ADME; settings: mice, read-out: Half-life (T1/2) in microsomes
Description: (§2) Respective half-lives (T1/2) were 9.5 hours (human), 23.1 hours (monkeys), >23.1 hours (mice), >23.1 hours (rats), 19.6 hours (rabbits), and >23.1 hours (dogs).

[5] = In vitro stability in microsomes (rat); format: in vitro ADME; settings: rats
Description: as §2

[6] = In vitro stability in microsomes (rabbit); format: in vitro ADME; settings: rabbits
Description: as §2

plasma proteins = experiment: In vitro plasma protein binding; format: in vitro ADME; settings: 1 μM, all species tested (human, monkey, mouse, rat, dog)
CYP2B6 = CYP2B6 (Homo sapiens, UniProt P20813); experiment: In vitro CYP inhibition (direct and time-dependent), CYP2B6; format: in vitro ADME
Excerpt: (§3) However, the likelihood of drug interactions is low since healthy participants who meet eligibility criteria will be enrolled in this Phase 1b/2a clinical trial. An allowance for select concomitant medications may be considered for select participants at the discretion of the investigator and/or sponsor if drug profiles are not anticipated to interact with Compound A. Such medications may include, but will not be limited to paracetamol or ibuprofen as assessed by both the PI and the Sponsor. […] Additional precautions to avoid grapefruit, pomegranates, star fruit, or Seville oranges for 7 days prior to admission, and juices and products containing these fruits for the duration of the study will be taken.

CYP2C19 = CYP2C19 (Homo sapiens, UniProt P33261); experiment: In vitro CYP inhibition (direct and time-dependent), CYP2C19; format: in vitro ADME
Excerpt: as §3

CYP2D6 = CYP2D6 (Homo sapiens, UniProt P10635); experiment: In vitro CYP inhibition (direct and time-dependent), CYP2D6; format: in vitro ADME
Excerpt: as §3

[7] = In vitro molar extinction coefficient assay; format: physicochemical; settings: UV light
Excerpt: As a result, participants will be advised to minimize exposure to sunlight, wear sunglasses and clothing that minimizes exposure to sunlight, and use sun cream on exposed areas when going outdoors during the 28-Day dosing period and until 10 days post last dose.

[8] = Phase 1b MAD study (Part 1), 28-day dosing, PK; format: in vivo, human; settings: for Cmax / AUC0-24 / AUC(0-t) / AUC(0-inf) / half-life: mean; for Tmax: median;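 as to all read-outs here: PK profiles sampled across 24 h on Day 1 and Day 28 while participants stayed overnight in the clinical research unit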
Description: • Part 1: Participants will have overnight stays in the clinical research unit in order to monitor their wellbeing and obtain 24-hour PK profiles on Day 1 and Day 28.

sperm counts = experiment: Phase 1b MAD study (Part 1), 28-day dosing, sperm counts; format: in vivo, human; settings: men dosed for 4 weeks (28 oral doses) at doses of up to 90 mg
Excerpt: The main underlying reason provided by experts in the male contraceptive field is the dosing duration. Dosing for 28 days in men only covers approximately one third of the entire cycle from sperm production to sperm release, which takes 85 days in men (71 days for one spermatogenic cycle and 14 days for epididymal transit). […] Therefore, the dosing period will be extended from 28 days to 90 days with the anticipation that this will show the intended effect (reduction in sperm concentration).
Cohort 4 (receiving 180 mg) is currently being studied.

mice = experiment: Mating trials with mice; format: in vivo, mouse; settings: 10 mg/kg/day for 4 weeks
[9] = male, human, in vivo, oral, 30 mg, […] mg once daily, Day 28
[10] = male, human, in vivo, oral, 15 mg once daily, Day 28

Sequence of CYP2C19 (P33261 whole entry): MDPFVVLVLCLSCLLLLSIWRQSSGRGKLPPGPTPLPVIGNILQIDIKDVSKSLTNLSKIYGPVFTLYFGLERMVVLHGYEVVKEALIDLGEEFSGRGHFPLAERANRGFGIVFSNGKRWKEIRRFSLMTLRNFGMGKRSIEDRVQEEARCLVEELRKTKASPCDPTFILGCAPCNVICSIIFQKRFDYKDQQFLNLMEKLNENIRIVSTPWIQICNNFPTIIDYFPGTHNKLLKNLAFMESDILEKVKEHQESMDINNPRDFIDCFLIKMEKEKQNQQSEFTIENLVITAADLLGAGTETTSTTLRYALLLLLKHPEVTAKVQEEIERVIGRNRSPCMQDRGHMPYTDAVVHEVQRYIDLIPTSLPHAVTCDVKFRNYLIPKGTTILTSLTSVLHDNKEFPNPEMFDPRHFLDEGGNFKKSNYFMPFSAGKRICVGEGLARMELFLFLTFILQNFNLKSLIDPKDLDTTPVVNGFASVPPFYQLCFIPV
Sequence of CYP2B6 (P20813 whole entry): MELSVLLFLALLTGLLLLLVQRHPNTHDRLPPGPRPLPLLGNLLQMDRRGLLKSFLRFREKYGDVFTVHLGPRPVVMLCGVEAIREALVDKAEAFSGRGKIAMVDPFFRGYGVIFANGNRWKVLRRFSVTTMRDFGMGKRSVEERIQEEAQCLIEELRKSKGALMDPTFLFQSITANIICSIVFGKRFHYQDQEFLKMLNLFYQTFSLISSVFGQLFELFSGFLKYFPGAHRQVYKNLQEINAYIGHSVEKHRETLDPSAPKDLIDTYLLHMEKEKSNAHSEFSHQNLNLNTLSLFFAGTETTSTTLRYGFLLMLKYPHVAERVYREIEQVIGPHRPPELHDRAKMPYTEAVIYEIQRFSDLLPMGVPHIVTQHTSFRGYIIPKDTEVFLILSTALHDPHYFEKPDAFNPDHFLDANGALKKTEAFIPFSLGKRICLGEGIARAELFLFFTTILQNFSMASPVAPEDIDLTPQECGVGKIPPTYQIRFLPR
Sequence of CYP2D6 (P10635 whole entry): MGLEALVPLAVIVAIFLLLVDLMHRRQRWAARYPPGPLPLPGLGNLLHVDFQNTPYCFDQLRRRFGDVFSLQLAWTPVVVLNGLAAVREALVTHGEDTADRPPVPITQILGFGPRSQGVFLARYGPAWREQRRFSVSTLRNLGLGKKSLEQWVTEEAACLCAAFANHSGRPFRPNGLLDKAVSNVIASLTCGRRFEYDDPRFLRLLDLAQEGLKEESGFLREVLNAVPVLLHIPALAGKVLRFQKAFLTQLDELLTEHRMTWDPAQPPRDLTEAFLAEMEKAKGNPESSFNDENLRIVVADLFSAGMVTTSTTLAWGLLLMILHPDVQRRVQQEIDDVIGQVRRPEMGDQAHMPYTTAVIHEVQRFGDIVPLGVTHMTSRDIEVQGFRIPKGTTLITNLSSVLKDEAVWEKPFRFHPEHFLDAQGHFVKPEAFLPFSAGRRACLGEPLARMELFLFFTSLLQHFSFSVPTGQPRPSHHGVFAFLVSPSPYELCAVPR

For `Cc1ccc(C2=CC(C)(C)Oc3ccc(-c4ccc(-c5ccc(C(=O)O)cc5)[nH]4)cc32)cc1` [Compound A], the “Genotoxicity: rat micronucleus” value (rat micronucleus) was “not genotoxic; also recorded: no genotoxic potential; also recorded: Clean”, the “Genotoxicity: Ames” value [1] was “not genotoxic; also recorded: no genotoxic potential; also recorded: Clean” and the Human equivalent dose of NOAEL at 14 days ([2]; NHP 14-day non-GLP, NOAEL 10 mg/kg/day, read-out: HED of NOAEL) was 3.2 mg/kg/day. The NOAEL at 14 days ([2]; 14-day repeat dose non-GLP, 5-20 mg/kg/day) was 10 mg/kg/day, the NOAEL at 14 days ([2]; 14-day repeat-dose) was 10 mg/kg and the “NOAEL increase over the minimum efficacious dose in rats” value ([3]; NHP NOAEL 10 mg/kg/day) was 22 fold. The Signs of toxicity ([3]; cynomolgus monkey, in vivo) was “No signs of toxicity”, the “HED (based on BSA)” value ([3]; of NHP 14-day repeat-dose NOAEL) was 3.23 mg/kg and 3.2 mg/kg and the “HED for 60 kg BW” value ([3]; of NHP repeat-dose NOAEL) was 192 mg. The HED for 80 kg BW ([3]; of NHP repeat-dose NOAEL) was 256 mg, the Fertility (rats; 3 mg/kg/day dose group) was 13% and the Fertility (rats; 10 mg/kg/day dose group) was 6%. The Fertility (rats; 30 mg/kg/day dose group) was 0%, the “Tolerated single dose (highest dose tested)” value (male mice; male mice, non-GLP study) was 1,000 mg/kg and the “HED of tolerated single dose” value (male mice; mice, 1,000 mg/kg) was 81.3 mg/kg. The “HED of tolerated single dose” value (male dogs; dogs, 500 mg/kg) was 277.8 mg/kg, the “Tolerated single dose (highest dose tested)” value (male dogs; male dogs, non-GLP study) was 500 mg/kg and the half-life [4] was over 23.1 h. For the same compound, the half-life ([5]; rat, read-out: Half-life (T1/2) in microsomes) was over 23.1 h, the Compound remaining intact ([5]; 90 minutes) was 113% and the half-life ([6]; rabbit, read-out: Half-life (T1/2) in microsomes (converted)) was 19.6 h. For the same compound, the Compound remaining intact ([6]; 90 minutes) was 99%, the “Binding to plasma proteins” value (plasma proteins) was “at least 99.99%” and the IC50 (CYP2B6; CYP2B6) was 6.1 µM. For the same compound, the “Time-dependent inhibition (TDI)” value (CYP2B6; CYP2B6, 0.3 to 100 μM) was “no TDI potential”, the IC50 (CYP2C19; CYP2C19) was 85.1 µM and the “Time-dependent inhibition (TDI)” value (CYP2C19; CYP2C19, 0.3 to 100 μM) was “no TDI potential”. For the same compound, the IC50 (CYP2D6; CYP2D6) was over 100 µM, the “Time-dependent inhibition (TDI)” value (CYP2D6; CYP2D6, 0.3 to 100 μM) was “NADPH-independent time-dependent inhibition” and the Phototoxicity potential [7] was “potential to cause phototoxicity”. The Cmax ([8]; 15 mg once daily, Day 1) was 247.8 ng/mL, the AUC0-24 ([8]; 15 mg once daily, Day 28) was 6,414 h*ng/mL and the AUC0-24 ([8]; 90 mg once daily, Day 1) was 14,091/ h*ng/mL. For the same compound, the Cmax ([8]; 90 mg once daily, Day 1) was 794.3 ng⁻¹ mL⁻¹, the AUC0-24 ([8]; 90 mg once daily, Day 28) was 22,710/ h*ng/mL and the Cmax ([8]; 90 mg once daily, Day 28) was 1,165/ ng/mL. For the same compound, the AUC0-24 ([8]; […] mg once daily, Day 1) was 10,060/ h*ng/mL, the Cmax ([8]; […] mg once daily, Day 1) was 544.5 ng⁻¹ mL⁻¹ and the AUC0-24 ([8]; […] mg once daily, Day 28) was 9,585/ h*ng/mL. It also gave a Cmax ([8]; […] mg once daily, Day 28) of 551.5 ng⁻¹ mL⁻¹, an AUC(0-t) ([8]; male, human, in vivo, oral, 15 mg, 15 mg once daily, Day 1, read-out: AUC0-24) of 4850 ng·h/mL and an AUC(0-t) ([8]; male, human, in vivo, oral, 15 mg, 15 mg once daily, Day 1, read-out: AUC0-last) of 4850 ng·h/mL. It also gave a Cmax ([8]; male, human, in vivo, oral, 15 mg, 15 mg once daily, Day 1, read-out: Cmax) of 275 ng/mL, an AUC(0-t) ([8]; male, human, in vivo, oral, 15 mg, 15 mg once daily, Day 28, read-out: AUC0-24) of 6420 ng·h/mL and an AUC(0-t) ([8]; male, human, in vivo, oral, 15 mg, 15 mg once daily, Day 28, read-out: AUC0-last) of 24700 ng·h/mL. For the same compound, the Cmax ([8]; male, human, in vivo, oral, 15 mg, 15 mg once daily, Day 28, read-out: Cmax) was 348 ng/mL, the AUC(0-t) ([8]; male, human, in vivo, oral, 30 mg, 30 mg once daily, Day 1, read-out: AUC0-24) was 10100 ng·h/mL and the AUC(0-t) ([8]; male, human, in vivo, oral, 30 mg, 30 mg once daily, Day 1, read-out: AUC0-last) was 10100 ng·h/mL. It also gave a Cmax ([8]; male, human, in vivo, oral, 30 mg, 30 mg once daily, Day 1, read-out: Cmax) of 544 ng/mL, an AUC(0-t) ([8]; male, human, in vivo, oral, 30 mg, 30 mg once daily, Day 28, read-out: AUC0-24) of 9580 ng·h/mL and an AUC(0-t) ([8]; male, human, in vivo, oral, 30 mg, 30 mg once daily, Day 28, read-out: AUC0-last) of 36100 ng·h/mL. It also gave a Cmax ([8]; male, human, in vivo, oral, 30 mg, 30 mg once daily, Day 28, read-out: Cmax) of 552 ng/mL, a Tmax ([8]; male, human, in vivo, oral, 30 mg, 30 mg once daily, Day 28) of 6 h and an AUC(0-inf) [8, 9] of 36400 ng·h/mL. It also gave a half-life [8, 9] of 28.9 h, an AUC(0-t) ([8]; male, human, in vivo, oral, 90 mg, 90 mg once daily, Day 1, read-out: AUC0-24) of 14100 ng·h/mL and an AUC(0-t) ([8]; male, human, in vivo, oral, 90 mg, 90 mg once daily, Day 1, read-out: AUC0-last) of 14100 ng·h/mL. The Cmax ([8]; male, human, in vivo, oral, 90 mg, 90 mg once daily, Day 1, read-out: Cmax) was 794 ng/mL, the Tmax ([8]; male, human, in vivo, oral, 90 mg, 90 mg once daily, Day 1) was 6 h and the AUC(0-t) ([8]; male, human, in vivo, oral, 90 mg, 90 mg once daily, Day 28, read-out: AUC0-24) was 22700 ng·h/mL. The Cmax ([8]; male, human, in vivo, oral, 90 mg, 90 mg once daily, Day 28, read-out: Cmax) was 1160 ng/mL, the AUC(0-inf) [8, 10] was 27500 ng·h/mL and the half-life [8, 10] was 35.8 h. For the same compound, the “Effect on sperm counts” value (sperm counts) was “not sufficient to decrease sperm counts; also recorded: firm evidence of sperm reduction has not been observed; also recorded: have not been replicated”, the “Complete recovery of fertility after cessation of dosing” value (mice) was 6-10 weeks and the “Infertility (based on the number of viable embryos)” value (mice) was 99%.
